Assay in all cases: growth of human tumour cells (NCI), 48 h
The subject of assay [1] is SK-OV-3 ovarian.
In assay [2] the test system is 786-0 renal.
The subject of assay [3] is A498 renal.
For assay [4], the system named is OVCAR-3 ovarian.
Assay [5] concerns OVCAR-8 ovarian.
In assay [6] the test system is NCI-H460 lung.
Assay [7] deals with ACHN renal.
Assay [8] relates to MALME-3M melanoma.
The test system of assay [9] is OVCAR-5 ovarian.

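How tested: cells in 96-well plates exposed to compound for 48 hours at five concentrations. At the GI50, growth is halved. TGI marks complete inhibition of growth.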

For `NC(=O)NCc1c(C(N)=O)ncn1Cc1ccccc1`, the TGI in assay [1], in [2], in assay [3], in assay [4], in assay [5] and in assay [6] was > 100 µM throughout. The TGI in assay [7] is > 100 µM.

For the compound `COc1ccc(OC)c2c(C(=O)O)c(Cc3ccccc3)ccc12`, the TGI in assay [1], in [2], in assay [3], in assay [4], in [5] and in assay [6] was > 100 µM throughout. Further, the TGI in [8], in [9] and in [7] was > 100 µM throughout.

On to `CCCCCCCCCCCC(=O)OCC1OC(OC)C(NC(=O)N(CCCl)N=O)C(O)C1O` (stereo not given), for which the TGI in [2] was determined as 10.4 µM; in [3] it was 35.7 µM; in assay [4], 33.4 µM; in assay [5], 41 µM; in [6], 20.5 µM; in assay [8], 30.6 µM. Moreover, the TGI in assay [9] was found to be 57.7 µM; in assay [7], 35.6 µM.

For `CC(=O)N[C@H]1CSSC[C@@H](C(N)=O)NC(=O)[C@H](C(C)C)NC(=O)[C@H](C)NC(=O)[C@H](Cc2cnc[nH]2)NC1=O`, the GI50 in [1], in assay [2], in assay [4], in assay [5], in assay [6] and in [8] was > 100 µM throughout. Besides, the GI50 in assay [9] and in assay [7] was > 100 µM throughout. In addition, the TGI in assay [1], in [2], in assay [4], in [5], in [6] and in [8] was > 100 µM each time. For the same compound, the TGI in assay [9] and in assay [7] was > 100 µM in each case.

As to `COc1cc(/C=C(\C#N)c2ccccc2)cc(OC)c1`, the TGI in assay [1], in [2], in assay [4], in assay [6], in [8] and in assay [9] was > 100 µM in each case. Moreover, the TGI in assay [7] was > 100 µM.

For the compound `CCN(CC)c1ccc(N=Nc2ccc(-c3nc4ccc[n+](C)c4s3)cc2)cc1`, the TGI was 38.1 µM in assay [1]; 59.1 µM in assay [2]; 26.6 µM in assay [3]; 15.9 µM in assay [4]; 65.3 µM in assay [5]; 21.5 µM in assay [6]. Further, the values for the TGI in assay [8] and in assay [9] were 26.3 µM and 31.1 µM, respectively.

Regarding `COc1ccc2nc(NC(=O)C(=O)C(C#N)c3ccc([N+](=O)[O-])cc3)sc2c1` (stereo not given), the TGI in assay [1], in assay [2], in assay [4], in assay [5], in assay [6] and in assay [8] was > 100 µM in each case. The TGI in [9] and in assay [7] was > 100 µM throughout.

Take `C=CCc1ccc(Oc2cc(CC=C)c3c(c2O)O[C@@H](CO)[C@H]3c2ccc(O)c(-c3cc(CC=C)ccc3O)c2)cc1`: the TGI in assay [1], in assay [2], in assay [3], in assay [4], in assay [5] and in assay [6] was > 100 µM in each case. Also, the TGI in [8], in assay [9] and in assay [7] was > 100 µM throughout.

As for `Clc1ccc2c(c1)-c1c3c(nn1-c1ccccc1)-c1ccccc1SC3O2` (stereo not given), the TGI in [1], in [2], in assay [3], in [4], in [5] and in [6] was > 100 µM each time. For the same compound, the TGI in assay [8], in assay [9] and in assay [7] was > 100 µM each time.

In the case of `O=c1c2cc(Br)cc(Br)c2nc(CCCl)n1CCO`, the TGI in assay [1], in assay [2], in assay [3], in assay [4], in assay [5] and in assay [6] was > 100 µM throughout. Moreover, the TGI in assay [8], in assay [9] and in [7] was > 100 µM throughout.

Take `CN(C)c1cc[c]([Sn]([c]2ccc(N(C)C)cc2)([c]2ccc(N(C)C)cc2)[c]2ccc(N(C)C)cc2)cc1`: the GI50 in assay [1] is 28 µM; in assay [2], 5.36 µM; in [3], 7.47 µM; in assay [4] it was 3.38 µM; in [5] it was 9.57 µM; in assay [6], 12 µM. The GI50 is 16.2 µM in [9] and 14.5 µM in assay [7]. Further, the TGI in [1] worked out at 49.5 µM; in assay [2], 19.3 µM; in [3], 20.3 µM; in assay [4], 18.9 µM; in assay [5], 56.3 µM; in [6] it was 28.1 µM. In addition, the results for the TGI in assay [9] and in assay [7] were 33.2 µM and 34.2 µM, respectively.

Take `O=C1[C@@H]2C(c3ccccc3F)=NO[C@@H]2C(=O)N1c1ccc(Cc2ccc(N3C(=O)[C@H]4C(c5ccccc5F)=NO[C@H]4C3=O)cc2)cc1`: the TGI in [1], in assay [2], in [3], in assay [4], in [5] and in assay [6] was > 100 µM throughout. For the same compound, the TGI in assay [8], in assay [9] and in assay [7] was > 100 µM throughout.

As to `O=C(c1ccccc1)C1OC12C(=O)Nc1ccccc12` (stereo not given), the TGI was > 100 µM in [1]; > 100 µM in assay [2]; > 100 µM in assay [3]; 97 µM in assay [4]; > 100 µM in assay [5]; > 100 µM in [6]. For the same compound, the TGI in assay [8], in assay [9] and in assay [7] was > 100 µM each time.

For the compound `Cc1c(C(=O)/C=C/c2ccccc2)[n+](=O)c2ccccc2n1[O-]`, the TGI came out at 42.7 µM in [1]; 32 µM in [2]; 31.3 µM in assay [3]; 30.6 µM in assay [4]; 28.7 µM in [5]; 35.6 µM in assay [6]. Further, the TGI in assay [8] came to 33.6 µM; in assay [9], 30.7 µM; in assay [7], 33.6 µM.

`C1C[OH+]CC[OH+]CC[OH+]CC[OH+]CC[OH+]1.[Cl-].[V]`: the GI50 in assay [1] was 67.8 µM; in assay [2] it was 19 µM; in assay [3], > 100 µM; in assay [4], 58.2 µM; in [5] it was > 100 µM; in assay [6], 46.2 µM. The GI50 was 13.4 µM in assay [8] and 75 µM in assay [7]. Besides, the TGI in assay [1] is > 100 µM; in [2] it was 43.7 µM; in assay [3], > 100 µM; in [4] it was > 100 µM; in [5], > 100 µM; in assay [6], > 100 µM. The TGI in assay [8] is 32 µM; in assay [7] it was > 100 µM.

Take `C/C(CC(=O)NCCc1ccccc1)=N\NC(=O)C[n+]1ccccc1`: the TGI in assay [1], in assay [2], in assay [3], in assay [4], in assay [5] and in [6] was > 100 µM in each case. Further, the TGI in assay [8], in assay [9] and in assay [7] was > 100 µM each time.

With `CSC(C1c2ccccc2N(c2ccc(C)cc2)c2[nH]c(=O)n(C)c(=O)c21)S(=O)(=O)c1ccc(C)cc1` (stereo not given), the TGI in [1], in [2], in assay [3], in assay [4], in [5] and in assay [6] was > 100 µM in each case. Further, the TGI in assay [8] and in assay [9] was > 100 µM throughout.

For `N#Cc1cccnc1Cl`, the TGI in [1], in assay [2], in [3], in assay [4], in assay [5] and in [6] was > 100 µM in each case. Besides, the TGI in assay [8], in assay [9] and in assay [7] was > 100 µM each time.

Consider `CCOC(=O)c1ccc(C)c(N=NN(C)C)c1`, for which the TGI in assay [1], in assay [2], in assay [3], in assay [4], in assay [5] and in [6] was > 100 µM each time. Further, the TGI in assay [8], in assay [9] and in [7] was > 100 µM throughout.

As to `O=C(Nc1c(Cl)cc([N+](=O)[O-])cc1Cl)C(=O)C(C1OC(=O)c2ccccc21)[N+](=O)[O-]` (stereo not given), the TGI in assay [1], in assay [2], in [3], in [4], in assay [5] and in assay [6] was > 100 µM each time. In addition, the TGI in assay [8], in [9] and in [7] was > 100 µM each time.

Consider `O=C1CCCC[C@H]1[C@H]1CCC[C@@H]([C@H]2CCCCC2=O)C1=O`, for which the TGI in assay [1], in [2], in assay [3], in assay [4], in assay [6] and in assay [8] was > 100 µM each time. Further, the TGI in assay [9] and in [7] was > 100 µM throughout.

On to `N#CC1CC2(C1)OCCS2` (stereo not given), for which the TGI in [2], in assay [3], in assay [4], in assay [5], in assay [6] and in [9] was > 100 µM throughout. Moreover, in assay [7], the TGI is > 100 µM.

Take `O=C1/C(=C/c2cccc([N+](=O)[O-])c2)COc2ccc(Br)cc21`: the TGI in assay [1], in assay [2], in assay [3], in assay [4], in assay [5] and in [6] was > 100 µM in each case. The TGI in [8], in [9] and in assay [7] was > 100 µM each time.

In the case of `C=CC/C=C/C/C=C/CCCCCCCc1cccc(O)c1C(=O)O`, the TGI in assay [1] is 79.8 µM; in assay [2], > 100 µM; in [4], > 100 µM; in assay [5], > 100 µM; in assay [6], > 100 µM; in [8] it was > 100 µM. The TGI in assay [9] and in [7] was > 100 µM throughout.

In the case of `S=C1OC2CCCC[C@H]2O1` (stereo not given in full), the TGI in [1], in assay [2], in assay [4], in [5], in assay [6] and in assay [9] was > 100 µM each time. Also, the TGI in assay [7] was > 100 µM.

Take `CC(C)(C)c1cc(C(O)(C(F)(F)F)C(F)(F)F)c2c(c1)C(C(F)(F)F)(C(F)(F)F)OC(C(C)(C)C)N2` (stereo not given): the TGI came to 5.58 µM in [1]; 11.9 µM in [2]; 9.43 µM in assay [4]; 13.1 µM in assay [5]; 9.01 µM in assay [6]; 23.3 µM in assay [9]. The same compound showed a TGI in [7] of 10.2 µM.

In the case of `CCOC(=O)NC(=O)c1cn(CCCOC(=O)CCCCCCCCCCC(=O)OCCCn2cc(C(=O)NC(=O)OCC)c(=O)[nH]c2=O)c(=O)[nH]c1=O`, the TGI in assay [1], in assay [2], in assay [4], in [5], in assay [6] and in assay [8] was > 100 µM throughout. Also, the TGI in [9] and in [7] was > 100 µM throughout.

For `O=C(O)[C@H](NS(=O)(=O)c1ccc([N+](=O)[O-])cc1)c1ccccc1`, the TGI in assay [1], in assay [2], in assay [4], in [5], in [6] and in assay [8] was > 100 µM each time. Further, the TGI in [9] and in assay [7] was > 100 µM each time.

The record behind these values is PubChem BioAssay (NCI).
